Experimental data as given in patent US20080194483A1, “GLP-1 (9-36) methods and compositions” (priority 2003, published 2008).
Where no end group is shown, it is not given here.

Tests used:
[1] = system: hepatocytes; type: cell-based
Method: An experiment similar to that described in Example 1 was performed, using hepatocytes rather than endothelial cells.

[2] = system: human aortic endothelial cells (HAEC); assay: Nutrient-induced ROS (CM-H2DCFDA) in human aortic endothelial cells; type: cell-based
Method: Cell Culture conditions. Confluent HAECs (passage 1-6) were maintained in EGM2 media containing 0.4% FBS plus growth factor additives. Cells were incubated for varying times with either 5 mM glucose, 12 mM glucose, or 5 mM glucose plus 800 μM oleic acid and 1 mM albumin. In other experiments, cells were incubated with 5 mM glucose, 12 mM glucose, or 5 mM glucose plus 800 μM oleic acid and 1 mM albumin, alone, or with either 100 pM GLP-1 (7-36 NH2), GLP-1 (7-36 NH2)+ the DPPIV inhibitor H-lys(4-nito-Z)-pyrrolidide and the neutral endopeptidase inhibitor phosphoramidon, GLP-1 (9-36 NH2), GLP-1 (9-36 NH2) plus the GLP-1 receptor blocker […], and with GLP-1 (9-36 NH2) with 100× GLP-1 (7-36 NH2) and both DPPIV and NEP inhibitors. Cells were pre incubated for four hrs in cycloheximide (5 ug/ml). In experiments using clotrimazole cells were preincubated for 2.5 hrs in serum free media. Reactive oxygen species quantification. Cells were plated in 96-well cell culture plates. Intracellular reactive oxygen species were detected using the fluorescent probe CM-H2DCFDA (Molecular Probes). Cells were loaded with 10 μM CM-H2DCFDA, incubated for 45 min at 37° C., and analyzed with an HTS 7000 Bio Assay Fluorescent Plate Reader (Perkin Elmer) using the HTSoft program.

[3] = system: endothelial nitric oxide synthase (eNOS); assay: eNOS activity ([3H]L-arginine to [3H]L-citrulline) in cultured vascular endothelial cells; type: cell-based, bovine; conditions: BAECs
Method: Cell-culture conditions. For measurement of endothelial nitric oxide activity (eNOS), bovine aortic endothelial cells (BAECs, passage 4-10) were plated in 24 well plates at 200,000 cells /well in Eagle's MEM containing 10% FBS, essential and nonessential amino acids, and antibiotics. Cells were incubated with either 5 mM glucose, 30 mM glucose, 30 mM glucose plus 10 nM GLP-1 (7-36), 30 mM glucose plus 10 nM GLP-1 (7-36) plus 10 μM pyrrolidide (a DPP IV inhibitor) (not shown in FIG. 2), 30 mM glucose plus 10 nM GLP-1 (7-36) plus 10 μM pyrrolidide and 100 μM phosphoramidon (a neutral endopeptidase 24.11 inhibitor), 30 mM glucose+GLP-1 (9-36), and 30 mM glucose plus GLP-1 (9-36) plus 10 nM exendin 9-39, a blocker of the GLP-1 (7-36) receptor. The pyrrolidide, phosphoramidon, and exendin 9-39 were each added to the cells four hours before the addition of the peptides. eNOS activity measurements were performed 48 hrs later. Measurement of eNOS activity. eNOS activity in cells was determined by first incubating cells in L-arginine-deficient, serum-free MEM media for 6 hours. […] The eluate was collected in glass scintillation vials for [^3H]L-citrulline quantitation by liquid scintillation spectroscopy.

[4] = system: bovine aortic endothelial cells (BAECs); assay: Hyperglycemia-induced intracellular ROS (CM-H2DCFDA) in cultured vascular endothelial cells; type: cell-based
Method: Cell culture conditions. For reactive oxygen species (RO) measurement, bovine aortic endothelial cells (BAECs, passage 4-10) were plated in 96 well plates at 100,000 cells/well in Eagle's MEM containing 10% FBS, essential and nonessential amino acids, and antibiotics. Cells were incubated with either 5 mM glucose, 30 mM glucose, 30 mM glucose plus 10 nM GLP-1 (7-36), 30 mM glucose plus 10 nM GLP-1 (7-36), 30 mM glucose plus 10 nM GLP-1 (7-36) plus 10 μM pyrrolidide (a DPP IV inhibitor), 30 mM glucose plus 10 nM GLP-1 (7-36) plus 10 μM pyrrolidide and 100 μM phosphoramidon (a neutral endopeptidase 24.11 inhibitor), and 30 mM glucose plus GLP-1 (9-36) plus 10 nM exendin 9-39, a blocker of the GLP-1 (7-36) receptor. The pyrrolidide, phosphoramidon, and exendin 9-39 were each added to the cells four hours before the addition of the peptides. The ROS measurements were performed 24 hrs later.
Intracellular reactive oxygen species measurements. The intracellular formation of reactive oxygen species was detected using the fluorescent probe CM-H2DCFDA (Molecular Probes). Cells (1×10^5 ml^−1) were loaded with 10 μM CM-H2DCFDDA, incubated for 45 min at 37° C., and analysed in an HTS 7000 Bio Assay Fluorescent Plate Reader (Perkin Elmer) using the HTSoft program. ROS production was determined from an H2O2 standard curve (10-200 nmol ml^−1).

[5] = system: rat hepatocytes; assay: Gluconeogenesis (glucose production) in isolated rat liver cells; type: cell-based; conditions: liver cells of non-diabetic control strain rats, 1000 pM insulin without GLP-1(9-36), 24 hours
Method: Liver cells were isolated from non-diabetic control strain rats and from SDF rats. Single-cell suspensions of hepatocytes were obtained from perfusions using the procedure of Berry and Friend (1969) and the perfusion mixture of […] et al. (1979). The cells were plated on tissue culture plastic for 6 hours at a density of 2×10^5 cells per well in a 24-well culture plate that was pre-coated with rat-tail collagen I. During plating, cells were cultured in RPMI 1640 medium supplemented with 10% FBS, penicillin/streptomycin, 10 μg/ml insulin and 10 μM dexamethasone. After allowing for adherence, the media was changed to RPMI with 5 mM glucose, 0.4% FCS, and no insulin or dexamethasone. The cells were allowed to equilibrate overnight in this low-glucose media. The following morning this media was refreshed, insulin alone, or insulin and GLP-1(9-36) were added and treatment lasted another 24 hours. After stimulation, glucose production was measured by incubating the cells for 6 hours in glucose-free RPMI containing 5 mM each of alanine, valine, glycine, pyruvate and lactate. Glucose was subsequently measured with a Trinder assay (Sigma). Averages were obtained of 4 independent measurements.

In the case of `CC[C@H](C)[C@H](NC(=O)[C@H](Cc1ccccc1)NC(=O)[C@H](CCC(=O)O)NC(=O)[C@H](CCCCN)NC(=O)[C@H](C)NC(=O)[C@H](C)NC(=O)[C@H](CCC(N)=O)NC(=O)CNC(=O)[C@H](CCC(=O)O)NC(=O)[C@H](CC(C)C)NC(=O)[C@H](Cc1ccc(O)cc1)NC(=O)[C@H](CO)NC(=O)[C@H](CO)NC(=O)[C@@H](NC(=O)[C@H](CC(=O)O)NC(=O)[C@H](CO)NC(=O)[C@@H](NC(=O)[C@H](Cc1ccccc1)NC(=O)[C@@H](NC(=O)CNC(=O)[C@@H](N)CCC(=O)O)[C@@H](C)O)[C@@H](C)O)C(C)C)C(=O)N[C@@H](C)C(=O)N[C@@H](Cc1c[nH]c2ccccc12)C(=O)N[C@@H](CC(C)C)C(=O)N[C@H](C(=O)N[C@@H](CCCCN)C(=O)NCC(=O)N[C@@H](CCCNC(=N)N)C(N)=O)C(C)C` [GLP-1 (9-36)], the “hyperglycemia-induced ROS formation in hepatocytes” value [1] is reported as “inhibited”.

For exendin 9-39 [e9-39], the “effect of GLP-1R antagonist on ability of GLP-1 degradation products to prevent glucose-induced ROS” value ([2]; 12 mM glucose, GLP-1 (9-36 NH2) plus receptor blocker) was “no effect”, the “effect of GLP-1 receptor blockade on GLP-1 (9-36) protection of eNOS activity” value ([3]; 30 mM glucose plus GLP-1 (9-36) plus 10 nM exendin 9-39 (FIG. 2, bar 6)) was “no effect” and the “effect of GLP-1 receptor blockade on inhibition of hyperglycemia-induced ROS by GLP-1 (9-36)” value ([4]; 30 mM glucose plus GLP-1 (9-36) plus 10 nM exendin 9-39) was “no effect”.

For insulin, the “gluconeogenesis, % of control levels” value [5] was 46 % of control levels.

For “GLP-1 (7-36) (HAEGTFTSDVSSYLEGQAAKEFIAWLVKGR-NH2; UniProt P01275 98-127, looked up, fragment)”, the “high glucose-induced ROS in the presence of DPP-4 and neutral endopeptidase 24.11 inhibitors” value ([2]; 12 mM glucose, 2 hrs, with protease inhibitors) was “no effect”, the “effect of 100-fold excess bioactive GLP-1 on ability of GLP-1 [9-36amide] to prevent nutrient-induced ROS” value ([2]; GLP-1 (9-36 NH2) with 100× GLP-1 (7-36 NH2) and both DPPIV and NEP inhibitors) was “did not affect” and the “hyperglycemia-induced decrease in eNOS activity when GLP-1 (7-36) degradation is blocked” value ([3]; 30 mM glucose, 10 nM peptide plus 10 μM pyrrolidide and 100 μM phosphoramidon (FIG. 2, bar 4)) was “no effect”. The “hyperglycemia-induced ROS production when GLP-1 degradation is blocked” value ([4]; 30 mM glucose, 10 nM peptide plus 10 μM pyrrolidide (DPP IV inhibitor) with or without 100 μM phosphoramidon (FIG. 1, bars 4 and 5)) was “no effect” and the “hyperglycemia-induced ROS production” value ([4]; 30 mM glucose, peptide alone, ROS measured 24 hrs later (FIG. 1)) was “completely prevents”.
